17 compounds from US20240336574A1 (LATIGO BIOTHERAPEUTICS, INC., priority 2021, published 2024) can be followed below.

For the assay, the target named is T1, recombinant human NaV1.8 stably transfected HEK cells (Homo sapiens, UniProt Q9Y5Y9).
T1 construct: expressed in transfected cells; host or cells: HEK cells, stably transfected
As to the kind of experiment: Compound profiling on NaV1.8, human NaV1.8 cell line, SyncroPatch384PE automated patch clamp assay (Example 102, first set of compounds, Table 16). The settings on record: human NaV1.8 HEK cells, Table 16 (first set of compounds). It counts as cell-based. The method, then: Compound Profiling on NaV1.8—Human NaV1.8 Cell Line—SyncroPatch384PE Assay
Compounds were tested on recombinant human NaV1.8 stably transfected HEK cells using the SyncroPatch384PE system, an automated patch clamp device. Cells were cultured at 37° C./5% CO2 in DMEM medium supplemented with GlutaMAX I, NEAA 1%, FBS 10% and seeded in T175 flasks. Cells were cultured at 30° C. one day prior to recording sodium currents. On the day of the recordings, cells were detached with 0.05% Trypsin-EDTA, resuspended in serum free DMEM medium and placed into the SyncroPatch384PE 6° C. pre-cooled cell hotel and shaken at 200 rpm. Intracellular solution (IC) contained, in mM: 10, CsCl; 110, CsF; 20, EGTA; 10, HEPES. Extracellular solution (EC) contained, in mM: 140, NaCl; 4, KCl; 5, Glucose; 10, HEPES; 2, CaCl2; 1, MgCl2. Washing solution contained, in mM: 40, NMDG; 100, NaCl; 4, KCl; 10, Glucose; 10, HEPES; 5, CaCl2; 1, MgCl2.
Compounds were tested in triplicate in 0.1% DMSO and 0.030% Pluronic Acid. Compounds were diluted 1:3 in EC solution to create a 10-point concentration response curve, spanning a final concentration range from 20-0.001 μM in the assay plate. Each plate contained tetracaine and another tool compound as positive controls. Up to 8 compounds were tested on one plate. 250 μM tetracaine and 0.1% DMSO were used as high and low controls, respectively. Whole cell patch clamp recordings were conducted according to Nanion's standard procedure for SyncroPatch384PE®. Cells were held at a holding potential of −120 mV. A depolarization step to 10 mV for 30 ms was applied (P1 measurement), followed by a hyperpolarization step to −100 mV for 100 ms. An inactivation step at −40 mV for 10 sec was applied before stepping to −100 mV for 20 ms, followed by a step to 10 mV for 30 ms (P2 measurement) and then back to −100 mV for 30 ms. Sweep interval was 15 sec with a sampling rate of 10 kHz. Following establishment of the whole-cell configuration in EC, two washing steps with reference buffer were performed to stabilize the baseline. Compounds were then applied by the SynchroPatch into each well and the current was recorded for five minutes in EC, followed by application of tetracaine to achieve full block at the end of the experiment. The potency of the compounds was assessed on two read-outs, resting state block (P1 measurement) or inactivated state block (P2 measurement) to obtain IC50 values. Values were normalized to high (tetracaine) and low (DMSO) controls. The IC50 values are listed in Table 16 as follows: “A” represents an IC50 less than or equal to 20 nM, “B” represents an IC50 greater than 20 nM to less than or equal to 40 nM, “C” represents an IC50 greater than 40 nM to less than or equal to 200 nM, “D” represents an IC50 greater than 200 nM to less than or equal to 500 nM.
(In general: In patch-clamp work, channel activity is measured electrically.)

[1] abbreviates: inactivated state block (P2 measurement), read-out: P2IC50.
The mark [2] stands for this setting: resting state block (P1 measurement), read-out: P1IC50.

Read-outs that look alike come from different tables or passages of the source.

T1 sequence (Q9Y5Y9 whole entry): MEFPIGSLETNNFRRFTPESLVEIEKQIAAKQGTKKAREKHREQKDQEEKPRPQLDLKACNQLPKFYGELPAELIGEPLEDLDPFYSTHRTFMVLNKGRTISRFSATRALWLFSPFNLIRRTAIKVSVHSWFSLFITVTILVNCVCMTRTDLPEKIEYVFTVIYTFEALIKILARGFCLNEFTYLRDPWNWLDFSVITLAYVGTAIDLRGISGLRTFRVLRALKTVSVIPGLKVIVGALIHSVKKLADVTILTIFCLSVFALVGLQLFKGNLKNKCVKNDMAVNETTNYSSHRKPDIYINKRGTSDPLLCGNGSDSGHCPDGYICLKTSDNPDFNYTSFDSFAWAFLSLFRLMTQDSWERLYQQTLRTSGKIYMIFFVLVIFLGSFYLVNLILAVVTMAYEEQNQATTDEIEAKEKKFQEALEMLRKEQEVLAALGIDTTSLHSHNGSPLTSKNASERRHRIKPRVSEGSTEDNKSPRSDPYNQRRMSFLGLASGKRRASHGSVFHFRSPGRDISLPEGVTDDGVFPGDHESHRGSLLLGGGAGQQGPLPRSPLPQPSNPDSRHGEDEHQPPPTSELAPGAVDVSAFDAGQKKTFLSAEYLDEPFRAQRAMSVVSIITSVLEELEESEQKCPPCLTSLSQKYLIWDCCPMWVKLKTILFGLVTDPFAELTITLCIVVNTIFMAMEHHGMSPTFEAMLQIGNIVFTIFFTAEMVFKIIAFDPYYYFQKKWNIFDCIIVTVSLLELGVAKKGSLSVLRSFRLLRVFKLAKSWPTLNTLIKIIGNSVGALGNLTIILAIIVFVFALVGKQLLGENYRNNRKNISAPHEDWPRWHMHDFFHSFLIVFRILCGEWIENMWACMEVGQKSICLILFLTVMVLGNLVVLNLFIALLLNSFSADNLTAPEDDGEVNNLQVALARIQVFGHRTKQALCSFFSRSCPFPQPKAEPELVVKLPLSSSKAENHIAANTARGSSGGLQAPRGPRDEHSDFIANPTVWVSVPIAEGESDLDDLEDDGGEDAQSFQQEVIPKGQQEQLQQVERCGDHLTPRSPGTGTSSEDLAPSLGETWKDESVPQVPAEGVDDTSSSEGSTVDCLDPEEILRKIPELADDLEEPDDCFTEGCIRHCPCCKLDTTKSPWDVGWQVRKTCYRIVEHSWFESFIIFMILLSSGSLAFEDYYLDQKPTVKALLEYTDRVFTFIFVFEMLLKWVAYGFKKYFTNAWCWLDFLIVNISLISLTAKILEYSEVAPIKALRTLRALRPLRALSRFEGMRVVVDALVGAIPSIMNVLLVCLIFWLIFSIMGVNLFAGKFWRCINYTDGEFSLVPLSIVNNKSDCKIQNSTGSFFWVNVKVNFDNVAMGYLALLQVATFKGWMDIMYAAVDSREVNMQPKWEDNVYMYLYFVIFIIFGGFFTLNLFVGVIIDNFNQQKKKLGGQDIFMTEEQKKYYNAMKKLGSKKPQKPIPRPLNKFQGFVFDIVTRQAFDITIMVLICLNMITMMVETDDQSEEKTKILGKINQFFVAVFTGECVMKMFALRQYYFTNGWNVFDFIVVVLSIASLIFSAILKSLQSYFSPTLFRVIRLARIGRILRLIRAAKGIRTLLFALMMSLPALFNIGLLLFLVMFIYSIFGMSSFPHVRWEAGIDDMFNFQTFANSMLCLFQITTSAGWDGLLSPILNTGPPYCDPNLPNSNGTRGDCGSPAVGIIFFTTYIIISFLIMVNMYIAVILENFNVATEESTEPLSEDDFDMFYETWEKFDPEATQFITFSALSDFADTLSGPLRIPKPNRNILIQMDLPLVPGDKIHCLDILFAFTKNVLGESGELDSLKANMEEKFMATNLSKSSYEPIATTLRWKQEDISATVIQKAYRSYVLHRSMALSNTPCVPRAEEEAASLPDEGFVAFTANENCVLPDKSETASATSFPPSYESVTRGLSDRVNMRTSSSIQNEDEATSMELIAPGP

Consider `COc1c(Oc2nnc3c(c2C(=O)Nc2cccc(C(N)=O)c2)CCC3)ccc(F)c1F` [Compound 1417], for which the IC50 reads like this: under setting [1], 0.2 to 0.5 µM; under setting [2], 0.2 to 0.5 µM.
Take `COc1cc(C#N)ccc1Oc1nnc(C(F)(F)F)c(C)c1C(=O)Nc1cccc(S(N)(=O)=O)c1` [Compound 1418]: the IC50 was ≤ 0.02 µM under setting [1] and ≤ 0.02 µM under setting [2].
Regarding `Cc1c(C(F)(F)F)nnc(Oc2ccc(OC(F)(F)F)c(F)c2F)c1C(=O)Nc1cccc(S(C)(=O)=O)c1` [Compound 1419], the IC50 is ≤ 0.02 µM under setting [1] and ≤ 0.02 µM under setting [2].
Turning to `Cc1ccc(Oc2nnc(C(F)(F)F)c(C)c2C(=O)Nc2cccc(S(C)(=O)=O)c2)c(C)n1` [Compound 1420], the IC50 is, setting by setting: under setting [1], 0.2 to 0.5 µM; under setting [2], 0.2 to 0.5 µM.
Consider `Cc1c(Oc2nnc(C(F)(F)F)c(C)c2C(=O)Nc2cccc(S(C)(=O)=O)c2)ccc(Cl)c1F` [Compound 1421], for which the IC50 runs as follows: under setting [1], ≤ 0.02 µM; under setting [2], ≤ 0.02 µM.
Regarding `Cc1c(C(F)(F)F)nnc(Oc2ccc(OC(F)F)c(F)c2F)c1C(=O)Nc1cccc(S(C)(=O)=O)c1` [Compound 1422], the IC50 by setting is: under setting [1], ≤ 0.02 µM; under setting [2], ≤ 0.02 µM.
Consider `Cc1c(C(F)(F)F)nnc(Oc2c(F)cc(OC(F)(F)F)cc2F)c1C(=O)Nc1cccc(S(C)(=O)=O)c1` [Compound 1423], for which the IC50 was 0.2 to 0.5 µM under setting [1] and 0.2 to 0.5 µM under setting [2].
`Cc1c(C(F)(F)F)nnc(Oc2ccc(OC(C)C)c(F)c2F)c1C(=O)Nc1cccc(S(C)(=O)=O)c1` [Compound 1424]: the IC50 is ≤ 0.02 µM under setting [1] and ≤ 0.02 µM under setting [2].
As for `COc1c(Oc2nnc(C(F)(F)F)c(C)c2C(=O)Nc2cccc(S(C)(=O)=O)c2)ccc(F)c1F` [Compound 1425], the IC50 was ≤ 0.02 µM under setting [1] and ≤ 0.02 µM under setting [2].
In the case of `Cc1c(C(F)(F)F)nnc(Oc2ccc(OC3CCC3)c(F)c2F)c1C(=O)Nc1cccc(S(C)(=O)=O)c1` [Compound 1426], the IC50 was ≤ 0.02 µM under setting [1] and ≤ 0.02 µM under setting [2].
In the case of `COc1ccc(Oc2nnc(C(F)(F)F)c(C)c2C(=O)Nc2cccc(S(C)(=O)=O)c2)c(C)c1F` [Compound 1427], the IC50 by setting is: under setting [1], ≤ 0.02 µM; under setting [2], ≤ 0.02 µM.
Take `COc1ccc(Oc2nnc(C(F)(F)F)c(C)c2C(=O)Nc2cccc(S(C)(=O)=O)c2)c(C)n1` [Compound 1428]: the IC50 is, setting by setting: under setting [1], 0.04 to 0.2 µM; under setting [2], 0.04 to 0.2 µM.
As to `CCOC(=O)c1cc(NC(=O)c2c(Oc3ccc(F)cc3C)nnc(C(F)(F)F)c2C)cc(S(C)(=O)=O)c1` [Compound 1429], the IC50 by setting is: under setting [1], 0.2 to 0.5 µM; under setting [2], 0.2 to 0.5 µM.
`Cc1cc(F)ccc1Oc1nnc(N2CC(F)C2)c(C)c1C(=O)Nc1cccc(S(C)(=N)=O)c1` (stereo not shown) [Compound 1431, 6-(3-Fluoroazetidin-1-yl)-3-(4-fluoro-2-methyl-phenoxy)-5-methyl-N-[3-(methylsulfonimidoyl)phenyl]pyridazine-4-carboxamide]: the IC50 by setting is: under setting [1], 0.2 to 0.5 µM; under setting [2], 0.2 to 0.5 µM.
`Cc1cc(F)ccc1Oc1nnc(C#N)c(C)c1C(=O)Nc1cccc(S(C)(=N)=O)c1` (stereo not shown) [Compound 1432, 6-cyano-3-(4-fluoro-2-methyl-phenoxy)-5-methyl-N-[3-(methylsulfonimidoyl)phenyl]pyridazine-4-carboxamide]: the IC50 fell in the range of 0.2 to 0.5 µM under setting [1] and 0.2 to 0.5 µM under setting [2].
Take `Cc1cc(F)ccc1Oc1nnc(C2CC2)c(C)c1C(=O)Nc1cccc(S(C)(=N)=O)c1` (stereo not shown) [Compound 1433, 6-cyclopropyl-3-(4-fluoro-2-methyl-phenoxy)-5-methyl-N-[3-(methylsulfonimidoyl)phenyl]pyridazine-4-carboxamide]: the IC50 is, setting by setting: under setting [1], 0.04 to 0.2 µM; under setting [2], 0.04 to 0.2 µM.
Consider `CC#Cc1nnc(Oc2ccc(F)cc2C)c(C(=O)Nc2cccc(S(C)(=N)=O)c2)c1C` (stereo not shown) [Compound 1434, 3-(4-Fluoro-2-methylphenoxy)-5-methyl-N-(3-(S-methylsulfonimidoyl)phenyl)-6-(prop-1-yn-1-yl)pyridazine-4-carboxamide], for which the IC50 by setting is: under setting [1], 0.2 to 0.5 µM; under setting [2], 0.2 to 0.5 µM.
